The target of assay [1] is T1, RNase A (Bos taurus, UniProt P61823).
T1 sequence (P61823 27-150): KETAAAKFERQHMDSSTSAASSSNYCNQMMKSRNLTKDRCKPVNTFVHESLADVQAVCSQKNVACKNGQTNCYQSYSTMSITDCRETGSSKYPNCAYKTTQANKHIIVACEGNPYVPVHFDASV
Nature of the assay: Inhibition kinetics of RNase A using a fluorogenic substrate. In kind it is biochemical, bovine. The settings on record: ± standard error of fitting one-site binding equation; this work.

Assay [2] has as its target T1, RNase A. The assay can be described thus: Salt dependence of inhibition/binding of RNase A. In kind it is biochemical, bovine. The settings on record: salt dependence of inhibition (Figure S30).
The target of assay [3] is T1, RNase A. Particulars: cited from earlier work.

Where two headings read alike, the source gives them in different places.

Take `O=c1ccn([C@@H]2O[C@H](COP(=O)(O)OP(=O)(O)OP(=O)(O)OP(=O)(O)OP(=O)(O)O)[C@@H](O)[C@H]2O)c(=O)[nH]1` [p5U]: the affinity on RNase A [1], expressed as Ki, was 0.068 ± 0.007 µM. Further, the “δlogKd/δlog[Na+]” value at RNase A [2] is on record as 3.2. In the case of `O=P(O)(O)OP(=O)(O)OP(=O)(O)O` [P3i], the Ki – broadly, a measure of affinity in units of concentration, obtained from inhibition or displacement – on RNase A [1] was determined as 23 ± 1 µM.

In the case of `O=P(O)(O)OP(=O)(O)O` [P2i, pyrophosphate], the Ki on RNase A [3] (ref [40]) is 170 µM. Regarding `Nc1ncnc2c1ncn2[C@@H]1O[C@H](COP(=O)(O)OP(=O)(O)O[C@H]2C[C@H](n3ccc(=O)[nH]c3=O)O[C@@H]2CO)[C@@H](OP(=O)(O)O)[C@H]1O` [dUppAp], the Ki at RNase A [3] (ref [7]) was 0.12 µM.

With `O=P1(O)OP(=O)(O)OP(=O)(O)O1` [cP3i, trimetaphosphate], the Ki at RNase A [1] was found to be 960 ± 80 µM. Consider `Nc1ncnc2c1ncn2[C@@H]1O[C@H](COP(=O)(O)OP(=O)(O)OP(=O)(O)OP(=O)(O)OC[C@H]2O[C@@H](n3cnc4c(N)ncnc43)[C@H](O)[C@@H]2O)[C@@H](O)[C@H]1O` [Ap4A], for which, on RNase A [3] (ref [10]), the Ki is 2.6 µM. On to `Nc1ncnc2c1ncn2C1OC(COP(=O)(O)OP(=O)(O)OC2CC(n3ccc(=O)[nH]c3=O)OC2COP(=O)(O)O)C(OP(=O)(O)O)C1O` (stereo not drawn) [pdUppAp], for which the Ki on RNase A [3] (ref [7]) was 0.027 µM. Compound `Nc1ncnc2c1ncn2[C@@H]1O[C@H](COP(=O)(O)OP(=O)(O)OP(=O)(O)OP(=O)(O)O)[C@@H](O)[C@H]1O` [p4A, adenosine tetraphosphate] returned a Ki at RNase A [1] of 2.1 ± 0.2 µM. As to `O=P(O)(O)O` [Pi, orthophosphate], the Ki at RNase A [3] (ref [40]) was 4600 µM. On to `O=c1ccn([C@@H]2O[C@H](COP(=O)(O)OP(=O)(O)OP(=O)(O)O)[C@@H](O)[C@H]2O)c(=O)[nH]1` [p3U], for which the Ki at RNase A [1] came to 8.3 ± 0.3 µM. The same measure, in the same setting: with `Nc1ncnc2c1ncn2[C@@H]1O[C@H](COP(=O)(O)O)[C@@H](O)[C@H]1O` [pA] the figure was 170 ± 6 µM.

Regarding `Cc1cn(C2CC(OP(=O)(O)OP(=O)(O)OCC3OC(n4cnc5c(N)ncnc54)C(O)C3OP(=O)(O)O)C(COP(=O)(O)O)O2)c(=O)[nH]c1=O` (stereo not drawn) [pdTppAp], at RNase A [3] (ref [7]), the Ki was 0.041 µM.

Consider `Nc1ncnc2c1ncn2[C@@H]1O[C@H](COP(=O)(O)OP(=O)(O)OP(=O)(O)O)[C@@H](O)[C@H]1O` [p3A], for which, on RNase A [3] (ref [10]), the Ki is 0.86 µM. At RNase A [1], `O=c1ccn(C2OC(COP(=O)(O)OP3(=O)OP(=O)(O)OP(=O)(O)OP(=O)(O)O3)C(O)C2O)c(=O)[nH]1` (stereo not drawn) [cp4pU] came in with a Ki of 0.98 ± 0.07 µM. The same measure, in the same setting: the same measure for `O=c1ccn([C@@H]2O[C@H](COP(=O)(O)OP(=O)(O)OP(=O)(O)OP(=O)(O)O)[C@@H](O)[C@H]2O)c(=O)[nH]1` [p4U, uridine tetraphosphate]: 1.8 ± 0.1 µM. Regarding `Cc1cn([C@H]2C[C@H](OP(=O)(O)OP(=O)(O)OC[C@H]3O[C@@H](n4cnc5c(N)ncnc54)C[C@@H]3O)[C@@H](CO)O2)c(=O)[nH]c1=O` [TppdA], the Ki on RNase A [3] (ref [7]) is 4 µM. On to `Nc1ncnc2c1ncn2[C@@H]1O[C@H](COP(=O)(O)OP(=O)(O)OP(=O)(O)OP(=O)(O)OP(=O)(O)OC[C@H]2O[C@@H](n3cnc4c(N)ncnc43)[C@H](O)[C@@H]2O)[C@@H](O)[C@H]1O` [Ap5A], for which, on RNase A [3] (ref [10]), the Ki was 0.23 µM.

As for `Nc1ncnc2c1ncn2[C@@H]1O[C@H](COP(=O)(O)OP(=O)(O)O)[C@@H](OP(=O)(O)O)[C@H]1O` [ppAp], the Ki on RNase A [3] (ref [7]) was 0.24 µM. For the compound `O=P1(O)OP(=O)(O)OP(=O)(O)OP(=O)(O)OP(=O)(O)OP(=O)(O)O1` [cP6i, hexametaphosphate], at RNase A [1], the affinity, expressed as Ki, was 6.2 ± 0.1 µM. Still for that read-out and setting: with `O=P1(O)OP(=O)(O)OP(=O)(O)OP(=O)(O)O1` [cP4i, tetrametaphosphate] the figure was 30 ± 0.8 µM; with `Nc1ncnc2c1ncn2C1OC(COP(=O)(O)OP2(=O)OP(=O)(O)OP(=O)(O)OP(=O)(O)O2)C(O)C1O` (stereo not drawn) [cp4pA], 0.48 ± 0.03 µM.

For the compound `Nc1ncnc2c1ncn2[C@@H]1O[C@H](COP(=O)(O)OP(=O)(O)O)[C@@H](O)[C@H]1O` [p2A], at RNase A [3] (ref [41]), the Ki was 1.2 µM. Turning to `O=c1ccn([C@@H]2O[C@H](COP(=O)(O)O)[C@@H](O)[C@H]2O)c(=O)[nH]1` [pU], on RNase A [3] (ref [42]), the Ki is 4000 µM. Turning to `O=c1ccn([C@@H]2O[C@H](COP(=O)(O)OP(=O)(O)O)[C@@H](O)[C@H]2O)c(=O)[nH]1` [p2U], the Ki at RNase A [3] (ref [43]) was 650 µM.

Consider `Nc1ncnc2c1ncn2[C@@H]1O[C@H](COP(=O)(O)OP(=O)(O)OP(=O)(O)OP(=O)(O)OP(=O)(O)O)[C@@H](O)[C@H]1O` [p5A], for which the Ki on RNase A [1] worked out at 1.4 ± 0.06 µM. On to `Nc1ncnc2c1ncn2[C@@H]1O[C@H](COP(=O)(O)OP(=O)(O)OP(=O)(O)OC[C@H]2O[C@@H](n3cnc4c(N)ncnc43)[C@H](O)[C@@H]2O)[C@@H](O)[C@H]1O` [Ap3A], for which the Ki at RNase A [3] (ref [10]) was 29 µM.
